Experimental data as given in PubChem BioAssay (NCI).
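Interpolation was linear, between the two tested concentrations surrounding the appropriate level; five concentrations were tested over 48 hours in 96-well plates. Here, GI50 denotes the concentration required for 50% inhibition of growth. TGI is the concentration that stops growth completely.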

Tests used:
Experiment in all cases: growth of human tumour cells (NCI), 48 h
786-0 renal = test system: 786-0 renal
A549 NSCLC = test system: A549 NSCLC
IGROV1 ovarian = test system: IGROV1 ovarian
K-562 leukemia = test system: K-562 leukemia
NCI-H226 lung = test system: NCI-H226 lung
NCI-H460 lung = test system: NCI-H460 lung
OVCAR-5 ovarian = test system: OVCAR-5 ovarian
SK-MEL-5 melanoma = test system: SK-MEL-5 melanoma
SN12C renal = test system: SN12C renal
UO-31 renal = test system: UO-31 renal

CC(SC1=CC(=O)c2c(O)ccc(O)c2C1=O)C(=O)O (stereo not given)
TGI (786-0 renal): 56.8 µM | TGI (A549 NSCLC): > 100 µM | TGI (IGROV1 ovarian): > 68.6 µM | TGI (K-562 leukemia): 40.7 µM | TGI (NCI-H226 lung): > 100 µM | TGI (NCI-H460 lung): > 100 µM | TGI (OVCAR-5 ovarian): > 100 µM | TGI (SK-MEL-5 melanoma): > 100 µM | TGI (SN12C renal): > 77.7 µM | TGI (UO-31 renal): > 75.4 µM

Cc1ccc(S(=O)(=O)NCCN2c3nc4ccccc4cc3Sc3cc4ccccc4nc32)cc1
GI50 (786-0 renal): 1.67 µM | TGI (786-0 renal): > 45.9 µM | GI50 (A549 NSCLC): > 100 µM | TGI (A549 NSCLC): > 100 µM | GI50 (IGROV1 ovarian): 7.06 µM | TGI (IGROV1 ovarian): > 100 µM | GI50 (K-562 leukemia): > 100 µM | TGI (K-562 leukemia): > 100 µM | GI50 (NCI-H226 lung): 64.2 µM | TGI (NCI-H226 lung): > 100 µM | GI50 (NCI-H460 lung): > 100 µM | TGI (NCI-H460 lung): > 100 µM | GI50 (OVCAR-5 ovarian): > 100 µM | TGI (OVCAR-5 ovarian): > 100 µM | GI50 (SK-MEL-5 melanoma): 5.59 µM | TGI (SK-MEL-5 melanoma): > 100 µM | GI50 (SN12C renal): > 100 µM | TGI (SN12C renal): > 100 µM | GI50 (UO-31 renal): > 100 µM | TGI (UO-31 renal): > 100 µM

CC1=C(N2CC2)C(=O)c2nc3n(c2C1=O)CCC3O (stereo not given)
TGI (786-0 renal): 0.967 µM | TGI (A549 NSCLC): 1.49 µM | TGI (IGROV1 ovarian): 1.2 µM | TGI (K-562 leukemia): 5.06 µM | TGI (NCI-H226 lung): 2.14 µM | TGI (NCI-H460 lung): 0.324 µM | TGI (OVCAR-5 ovarian): 3.84 µM | TGI (SK-MEL-5 melanoma): 0.0562 µM | TGI (SN12C renal): 2.71 µM | TGI (UO-31 renal): 4.18 µM

NC(N)=NNC(=O)C(=O)O
TGI (786-0 renal): > 100 µM | TGI (A549 NSCLC): > 100 µM | TGI (IGROV1 ovarian): > 100 µM | TGI (K-562 leukemia): > 100 µM | TGI (NCI-H226 lung): > 100 µM | TGI (NCI-H460 lung): > 100 µM | TGI (OVCAR-5 ovarian): > 100 µM | TGI (SK-MEL-5 melanoma): > 100 µM | TGI (SN12C renal): > 100 µM | TGI (UO-31 renal): > 100 µM

CCCN(CCCCC(NC(C)=O)C(=O)NCc1ccccc1)C(=O)NC (stereo not given)
TGI (786-0 renal): > 100 µM | TGI (A549 NSCLC): > 100 µM | TGI (IGROV1 ovarian): > 100 µM | TGI (K-562 leukemia): > 100 µM | TGI (NCI-H226 lung): > 100 µM | TGI (NCI-H460 lung): > 100 µM | TGI (OVCAR-5 ovarian): > 100 µM | TGI (SK-MEL-5 melanoma): > 100 µM | TGI (SN12C renal): > 100 µM | TGI (UO-31 renal): > 100 µM

Cc1ccc(C)c(NC(=O)/C(=N\NC(N)=S)C(C#N)c2ccccc2)c1 (stereo not given)
TGI (786-0 renal): > 100 µM | TGI (A549 NSCLC): > 100 µM | TGI (IGROV1 ovarian): > 100 µM | TGI (K-562 leukemia): > 100 µM | TGI (NCI-H226 lung): > 100 µM | TGI (NCI-H460 lung): > 100 µM | TGI (OVCAR-5 ovarian): > 100 µM | TGI (SK-MEL-5 melanoma): > 100 µM | TGI (SN12C renal): > 100 µM | TGI (UO-31 renal): > 100 µM

Cn1c2ccccc2n2c3nc4ccccc4nc3c(C#N)c12
TGI (786-0 renal): > 100 µM | TGI (A549 NSCLC): > 100 µM | TGI (IGROV1 ovarian): > 100 µM | TGI (K-562 leukemia): > 100 µM | TGI (NCI-H226 lung): > 100 µM | TGI (NCI-H460 lung): > 100 µM | TGI (OVCAR-5 ovarian): > 100 µM | TGI (SK-MEL-5 melanoma): > 100 µM | TGI (SN12C renal): > 100 µM | TGI (UO-31 renal): > 100 µM

O=C(O)C(Cc1ccc(O)c([N+](=O)[O-])c1)N1C(=O)c2ccccc2C1=O (stereo not given)
TGI (786-0 renal): > 100 µM | TGI (A549 NSCLC): > 100 µM | TGI (IGROV1 ovarian): > 100 µM | TGI (K-562 leukemia): > 100 µM | TGI (NCI-H226 lung): > 100 µM | TGI (NCI-H460 lung): > 100 µM | TGI (OVCAR-5 ovarian): > 100 µM | TGI (SK-MEL-5 melanoma): > 100 µM | TGI (SN12C renal): > 100 µM | TGI (UO-31 renal): > 100 µM

CCCN(CCC)c1c([N+](=O)[O-])cc(S(N)(=O)=O)cc1[N+](=O)[O-]
TGI (786-0 renal): 30.4 µM | TGI (A549 NSCLC): 32.8 µM | TGI (IGROV1 ovarian): 19.6 µM | TGI (K-562 leukemia): 35.7 µM | TGI (NCI-H226 lung): 42.7 µM | TGI (NCI-H460 lung): 29.4 µM | TGI (OVCAR-5 ovarian): 37.9 µM | TGI (SK-MEL-5 melanoma): 33.5 µM | TGI (SN12C renal): 31.6 µM | TGI (UO-31 renal): 34.8 µM
